Here are results for one compound from patent publication US10576039B2, “Ophthalmic formulation comprising citicoline carried by liposome for the treatment of glaucoma” (Omikron Italia S.r.l., priority 2016, dated 2020).

Structures are written as SMILES.

Series [1] in a line: Citicoline in vitreous humour and blood by HPLC after topical instillation of liposome solution. Type of series: in vivo, male mice of Wistar-Kyoto strain. From the text:
For the experimental group 12 animals were used for an adequate statistical management of the results (average, standard deviation and significance).
The used number of animals, following statistical evaluation, represents the minimum number therefrom it is possible to obtain significant data. In the study male mice of Wistar-Kyoto strain were used according to previous experiments performed by the research group.
The animals were kept and manipulated in a structure suitable for keeping the animals under optimum conditions (temperature, humidity, ventilation, hygienic conditions). In the study a formulation in solution for ophthalmic use was utilized constituted by […] liposomes including 2% citicoline sodium salt. […]
Moreover on each animal an endocardial blood sample was taken after total anaesthesia both before and after treatment, just before being sacrificed, by using a test tube with EDTA; on such sample, for each animal, the blood count and citicoline presence were determined. […]
After extraction and subsequent centrifugation at 13,000 rpm for 5 minutes at 5° C. the supernatant was taken and injected into a HPLC system equipped with a ultraviolet detector Diode Array and chromatographic column C18—Kromasil 250×4.6 mm with 5-μm particles. Of course, all samples, even the checks, were subjected to the same kind of treatment before being analysed in HPLC. […]

For series [2] the following is noted: taken orally, cited from earlier work.

On to `C[N+](C)(C)CCOP(=O)(O)OP(=O)([O-])OC[C@H]1O[C@@H](n2ccc(N)nc2=O)[C@H](O)[C@@H]1O` [Citicoline, cytidine-5′-diphosphocholine], for which, in series [1] (eyes treated topically with liposome solution for three days), the “vitreous humour citicoline as % of the amount applied topically” value is 13%. Also, the “presence/penetration of citicoline in the vitreous humour (in words)” value in series [1] (topical treatment, HPLC elution profile, comparison with citicoline administered in solution (Parisi et al., 2015; Roberti et al., 2015)) is on record as “present in high concentrations”. Moreover, the “time of plasma peak after ingestion” value in series [2] (first peak) is 1 h. In addition, the “time of larger second plasma peak” value in series [2] (later peak) is given as 24 h. The “fraction excreted in the feces” value in series [2] was “less than 1%”.
